# Reference: ChEMBL document CHEMBL4229522, “Inhibition of the LOX enzyme family members with old and new ligands. Selectivity analysis revisited” (Bioorg Med Chem Lett, 2018)
# Legend:
# Protein-lysine 6-oxidase = target: T1, Protein-lysine 6-oxidase (Homo sapiens, UniProt P28300); assay: Inhibition of recombinant human LOX expressed in HEK293 cells using diaminopentane as substrate preincubated for 30 mins followed by substrate addition measured after 1 hr by fluorimetric method; type: cell-based
# T1 sequence (P28300 whole entry): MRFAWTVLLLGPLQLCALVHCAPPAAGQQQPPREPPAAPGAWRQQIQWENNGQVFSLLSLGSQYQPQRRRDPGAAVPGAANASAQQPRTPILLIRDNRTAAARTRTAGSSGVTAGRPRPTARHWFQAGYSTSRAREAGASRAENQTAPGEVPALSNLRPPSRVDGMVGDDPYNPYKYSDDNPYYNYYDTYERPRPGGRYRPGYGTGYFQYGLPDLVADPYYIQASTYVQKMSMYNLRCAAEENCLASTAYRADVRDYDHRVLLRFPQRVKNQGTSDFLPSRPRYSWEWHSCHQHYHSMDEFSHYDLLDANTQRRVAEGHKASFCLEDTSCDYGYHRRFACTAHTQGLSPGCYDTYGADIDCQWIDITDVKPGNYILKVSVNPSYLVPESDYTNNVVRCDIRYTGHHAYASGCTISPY
# Lysyl oxidase homolog 2 = target: T2, Lysyl oxidase homolog 2 (Homo sapiens, UniProt Q9Y4K0); assay: Inhibition of recombinant LOXL2 (unknown origin) expressed in NS0 cells using diaminopentane as substrate preincubated for 30 mins followed by substrate addition measured after 1 hr by fluorimetric method
# T2 sequence (Q9Y4K0 whole entry): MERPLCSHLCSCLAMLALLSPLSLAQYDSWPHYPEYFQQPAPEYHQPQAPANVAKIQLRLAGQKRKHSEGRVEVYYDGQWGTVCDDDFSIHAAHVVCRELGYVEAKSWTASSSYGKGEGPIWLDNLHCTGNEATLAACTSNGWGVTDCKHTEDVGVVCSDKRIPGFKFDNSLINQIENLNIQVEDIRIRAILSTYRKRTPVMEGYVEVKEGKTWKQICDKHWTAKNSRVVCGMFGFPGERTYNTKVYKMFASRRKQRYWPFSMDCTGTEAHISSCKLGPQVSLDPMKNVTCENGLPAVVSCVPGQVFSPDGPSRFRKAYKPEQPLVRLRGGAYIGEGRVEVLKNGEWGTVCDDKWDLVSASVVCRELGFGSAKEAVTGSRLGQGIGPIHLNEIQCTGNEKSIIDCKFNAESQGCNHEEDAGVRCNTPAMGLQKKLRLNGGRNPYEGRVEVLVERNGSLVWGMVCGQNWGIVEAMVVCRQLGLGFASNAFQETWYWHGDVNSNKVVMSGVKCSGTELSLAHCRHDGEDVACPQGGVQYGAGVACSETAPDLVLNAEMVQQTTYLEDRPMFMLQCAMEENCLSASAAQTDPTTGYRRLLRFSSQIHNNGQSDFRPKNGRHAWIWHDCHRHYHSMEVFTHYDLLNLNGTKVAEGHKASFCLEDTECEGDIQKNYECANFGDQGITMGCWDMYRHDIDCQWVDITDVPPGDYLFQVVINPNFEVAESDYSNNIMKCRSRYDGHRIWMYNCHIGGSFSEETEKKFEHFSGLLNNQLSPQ
# Lysyl oxidase homolog 4 = target: T3, Lysyl oxidase homolog 4 (Homo sapiens, UniProt Q96JB6); assay: Inhibition of recombinant human LOXL4 expressed in baculovirus infected insect cells using diaminopentane as substrate preincubated for 30 mins followed by substrate addition measured after 1 hr by fluorimetric method
# T3 sequence (Q96JB6 whole entry): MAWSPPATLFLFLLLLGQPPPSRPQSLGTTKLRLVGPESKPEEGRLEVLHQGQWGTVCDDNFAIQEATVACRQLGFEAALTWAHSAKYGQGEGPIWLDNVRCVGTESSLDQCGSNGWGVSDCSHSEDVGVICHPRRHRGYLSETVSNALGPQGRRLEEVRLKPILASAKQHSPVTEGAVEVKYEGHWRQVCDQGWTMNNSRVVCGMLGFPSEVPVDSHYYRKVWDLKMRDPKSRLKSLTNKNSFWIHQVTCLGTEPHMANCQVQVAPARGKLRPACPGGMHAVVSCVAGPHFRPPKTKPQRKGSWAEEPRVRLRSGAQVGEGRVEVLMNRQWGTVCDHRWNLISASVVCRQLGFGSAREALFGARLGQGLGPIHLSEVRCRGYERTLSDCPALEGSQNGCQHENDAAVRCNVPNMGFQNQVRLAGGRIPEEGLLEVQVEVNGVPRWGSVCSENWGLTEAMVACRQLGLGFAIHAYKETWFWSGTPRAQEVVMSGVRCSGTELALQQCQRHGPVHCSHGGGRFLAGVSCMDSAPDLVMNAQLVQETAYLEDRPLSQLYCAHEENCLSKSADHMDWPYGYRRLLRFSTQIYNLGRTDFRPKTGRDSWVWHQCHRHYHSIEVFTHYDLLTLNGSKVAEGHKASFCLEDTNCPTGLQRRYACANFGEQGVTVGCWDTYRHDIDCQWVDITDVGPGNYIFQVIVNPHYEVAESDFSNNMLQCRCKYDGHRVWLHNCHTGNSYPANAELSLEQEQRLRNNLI
# [1] = target: T4, Lysyl oxidase homolog 2 (Homo sapiens) (UniProt Q9Y4K0); assay: Inhibition of recombinant LOXL2 (unknown origin) expressed in NS0 cells at 10 uM using diaminopentane as substrate preincubated for 30 mins followed by substrate addition measured after 1 hr by fluorimetric method relative to control
# T4 sequence (whole entry): T2 sequence (Q9Y4K0 whole entry)
# [2] = target: T5, Lysyl oxidase homolog 4 (Homo sapiens) (UniProt Q96JB6); assay: Inhibition of recombinant human LOXL4 expressed in baculovirus infected insect cells at 10 uM using diaminopentane as substrate preincubated for 30 mins followed by substrate addition measured after 1 hr by fluorimetric method relative to control
# T5 sequence (whole entry): T3 sequence (Q96JB6 whole entry)
# Lysyl oxidase homolog 3 = target: T6, Lysyl oxidase homolog 3 (Homo sapiens, UniProt P58215); assay: Inhibition of recombinant human LOXL3 expressed in CHO cells using diaminopentane as substrate preincubated for 30 mins followed by substrate addition measured after 1 hr by fluorimetric method
# T6 sequence (P58215 whole entry): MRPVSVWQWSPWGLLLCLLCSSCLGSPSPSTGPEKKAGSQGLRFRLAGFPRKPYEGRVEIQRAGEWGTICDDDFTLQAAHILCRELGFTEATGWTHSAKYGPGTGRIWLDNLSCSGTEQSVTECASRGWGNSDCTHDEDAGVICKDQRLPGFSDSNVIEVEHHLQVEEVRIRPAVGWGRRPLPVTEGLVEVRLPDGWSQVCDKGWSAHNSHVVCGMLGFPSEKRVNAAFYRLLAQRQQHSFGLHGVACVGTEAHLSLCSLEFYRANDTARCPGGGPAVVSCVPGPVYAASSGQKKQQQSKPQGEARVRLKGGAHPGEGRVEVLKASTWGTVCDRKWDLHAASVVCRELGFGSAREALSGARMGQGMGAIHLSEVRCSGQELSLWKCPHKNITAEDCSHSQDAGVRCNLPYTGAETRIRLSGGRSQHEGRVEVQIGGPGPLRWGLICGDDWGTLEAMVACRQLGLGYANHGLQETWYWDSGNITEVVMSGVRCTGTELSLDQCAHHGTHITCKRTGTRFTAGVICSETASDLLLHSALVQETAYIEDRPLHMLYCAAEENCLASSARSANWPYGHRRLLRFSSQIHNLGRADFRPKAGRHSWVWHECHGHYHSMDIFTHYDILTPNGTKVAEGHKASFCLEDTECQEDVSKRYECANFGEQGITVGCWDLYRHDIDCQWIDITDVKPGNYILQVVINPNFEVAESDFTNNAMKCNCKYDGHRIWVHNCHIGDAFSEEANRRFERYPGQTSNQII
Structure (SMILES),IC50 (Protein-lysine 6-oxidase) [µM],IC50 (Lysyl oxidase homolog 2) [µM],IC50 (Lysyl oxidase homolog 4) [µM],inhibition [1] [%],inhibition [2] [%],IC50 (Lysyl oxidase homolog 3) [nM]
O=c1c2ccc(-c3cccs3)nc2[nH]n1-c1ccccc1,> 100,7.8,> 100,< 40,< 40,–
CCN1/C(=C2\C(=O)N(c3ccccc3)N=C2Nc2ccccc2)C=Cc2ccccc21,–,1,> 100,< 40,< 40,–
CC1=NN(c2ccccc2)C(=O)/C1=C/NNc1nnc(C)c(O)n1,–,34,> 100,< 40,< 40,–
CCOC(=O)c1sc(N/N=C2\C(=O)N(c3ccccc3)N=C2N)c(C(=O)OCC)c1C,–,> 100,3.3,< 40,< 40,> 100000
O=c1c2cccnc2[nH]c(=S)n1-c1ccccc1,> 100,75,> 100,< 40,< 40,18000
Cc1cc(-c2ccc3c(=O)n(-c4ccccc4)[nH]c3n2)c(C)o1,–,3.8,55,< 40,< 40,–
CC(C)(C)C1=NN(c2ccccc2)C(=O)C1,75,> 100,> 100,< 40,< 40,> 100000
N#CCCN,> 100,0.073,> 100,–,< 40,170
COc1ccccc1-c1cc(=O)c2c(=O)n(-c3ccccc3)[nH]c2[nH]1,–,45,> 100,< 40,< 40,–
[O-][n+]1ccccc1S [PYRITHIONE],33,18,15,< 40,< 40,12000
CC1=NN(c2ccccc2)C(=O)C1C (stereo not drawn),2.6,2.1,2.1,< 40,< 40,1300
CCN(CC)C(=S)SSC(=S)N(CC)CC [DISULFIRAM],0.32,0.15,0.059,< 40,< 40,93
CN(C)C(=S)SSC(=S)N(C)C [THIRAM],1.04,0.17,0.18,< 40,< 40,110
Cc1cc(C)c2c(=O)n(-c3ccccc3)[nH]c2n1,35,25,> 100,< 40,< 40,> 100000
